Results taken from ChEMBL document CHEMBL1150176, “Majorenolide and majorynolide: a new pair of cytotoxic and pesticidal alkene-alkyne delta-lactones from Persea major” (J Nat Prod, 1989).
In brackets after ≈: the same amount, converted by molar mass. Activity calls are given as the source filed them. The calls are words filed in the database; no cut-off is given here.

Experiments:
Spodoptera eridania = assay: Pesticidal activity against southern armyworm at 5000 ppm; assay type: functional, organism-based
MCF7 = assay: Cytotoxicity against human MCF7 cells; assay type: functional; conditions: read-out: ED50 (the source's name)
[1] = system: Diabrotica undecimpunctata; assay: Pesticidal activity against southern corn rootworm at 300 ppm; assay type: functional, organism-based; conditions: howardi
Culicidae = assay: Pesticidal activity against mosquito larvae at 10 ppm; assay type: functional
A549 = assay: Cytotoxicity against human A549 cells; assay type: functional; conditions: read-out: ED50 (the source's name)
Aphis gossypii [2] = assay: Pesticidal activity against melon aphid at 10 ppm; assay type: functional
Artemia = assay: Toxicity against brine shrimp; assay type: organism-based; conditions: in vivo
Haemonchus contortus = assay: Nematicidal activity against Haemonchus contortus; assay type: functional
HT-29 = assay: Cytotoxicity against human HT-29 cells; assay type: functional; conditions: read-out: ED50 (the source's name)
Calliphoridae = assay: Pesticidal activity against blowfly; assay type: functional
[3] = system: Agrobacterium tumefaciens; assay: Antitumor activity against Agrobacterium tumefaciens-induced crown gall tumors in potato tuber by potato disk test; assay type: functional
Tetranychus urticae = assay: Pesticidal activity against two spotted spider mite at 400 ppm; assay type: functional
Aphis gossypii [4] = assay: Pesticidal activity against melon aphid at 400 ppm; assay type: functional

Compound: C=CCCCCCCCCC/C=C1\CC(CO)OC1=O (centres undefined) [MAJORENOLIDE]
- Activity (Spodoptera eridania): inactive
- EC50 (MCF7): 2.58 µg/mL (≈ 9.2 µM)
- Activity [1]: inactive
- Activity (Culicidae): 20%
- EC50 (A549): 1.7 µg/mL (≈ 6.06 µM)
- Activity (Aphis gossypii [2]): 80%
- LC50 (Artemia): 0.36 ppm
- Activity (Haemonchus contortus): 0.1%
- EC50 (HT-29): 2.61 µg/mL (≈ 9.31 µM)
- Activity (Calliphoridae): 1%
- inhibition (INH) [3]: 86%
- Activity (Tetranychus urticae): 0%

Compound: C#CCCCCCCCCC/C=C1\CC(CO)OC1=O (centres undefined) [MAJORYNOLIDE]
- Activity (Spodoptera eridania): inactive
- EC50 (MCF7): 9.56 µg/mL (≈ 34.3 µM)
- Activity [1]: inactive
- Activity (Culicidae): 0%
- EC50 (A549): 4.64 µg/mL (≈ 16.7 µM)
- LC50 (Artemia): 0.89 ppm
- Activity (Haemonchus contortus): 0.1%
- Activity (Aphis gossypii [4]): 0%
- EC50 (HT-29): 13.8 µg/mL (≈ 49.6 µM)
- Activity (Calliphoridae): 1%
- inhibition (INH) [3]: 46%
- Activity (Tetranychus urticae): 0%
